Test results as given in the CheMixHub viscosity set.
± gives the uncertainty stated by the source.

Assay: xn = mol fraction of the nth substance listed

CNCCO + O
viscosity [mPa·s]
Conditions | 293.15 K | 298.15 K | 303.15 K | 308.15 K | 313.15 K | 318.15 K | 323.15 K
100 kPa, x2 = 0.51 | 26.3 ± 0.4 | – | – | – | 9.61 ± 0.16 | – | 6.36 ± 0.11
101 kPa, x1 = 0.0844 | – | – | 2.541 ± 0.026 | 2.165 ± 0.018 | 1.868 ± 0.016 | 1.625 ± 0.015 | –
101 kPa, x1 = 0.1894 | – | – | 6.505 ± 0.051 | 5.276 ± 0.042 | 4.347 ± 0.034 | 3.612 ± 0.029 | –
101 kPa, x1 = 0.3001 | – | – | 11.33 ± 0.085 | 8.968 ± 0.073 | 7.206 ± 0.059 | 5.87 ± 0.048 | –
101 kPa, x1 = 0.4014 | – | – | 14.46 ± 0.12 | 11.33 ± 0.098 | 9.042 ± 0.077 | 7.311 ± 0.062 | –
101 kPa, x1 = 0.448 | – | – | 15.21 ± 0.13 | 11.93 ± 0.11 | 9.52 ± 0.083 | – | –
101 kPa, x1 = 0.5016 | – | – | 15.62 ± 0.14 | 12.24 ± 0.11 | 9.767 ± 0.088 | – | –
101 kPa, x1 = 0.5474 | – | – | 15.45 ± 0.14 | 12.14 ± 0.11 | 9.666 ± 0.089 | – | –
101 kPa, x1 = 0.6004 | – | – | 15.17 ± 0.14 | 11.95 ± 0.11 | 9.57 ± 0.091 | – | –
101 kPa, x1 = 0.7021 | – | – | 13.66 ± 0.13 | 10.84 ± 0.11 | 8.761 ± 0.088 | – | –
101 kPa, x1 = 0.7975 | – | – | 11.89 ± 0.12 | 9.564 ± 0.1 | 7.81 ± 0.083 | – | –
101 kPa, x1 = 0.9048 | – | – | 10.09 ± 0.11 | 8.218 ± 0.092 | 6.771 ± 0.076 | – | –
101.3 kPa, x1 = 0.0125 | 1.234 ± 0.032 | 1.086 ± 0.028 | 0.963 ± 0.025 | 0.863 ± 0.023 | 0.778 ± 0.02 | 0.705 ± 0.018 | 0.644 ± 0.017
101.3 kPa, x1 = 0.138 | 6.87 ± 0.18 | 5.53 ± 0.14 | 4.42 ± 0.11 | 3.65 ± 0.09 | 3.07 ± 0.07 | 2.61 ± 0.06 | 2.25 ± 0.05
101.3 kPa, x1 = 0.265 | 16.7 ± 0.38 | 12.81 ± 0.29 | – | 7.99 ± 0.18 | 6.46 ± 0.14 | 5.31 ± 0.12 | 4.41 ± 0.1
101.3 kPa, x2 = 0.3167 | 22.4 ± 0.59 | 17.24 ± 0.45 | 13.51 ± 0.35 | 10.76 ± 0.28 | 8.699 ± 0.23 | 7.129 ± 0.19 | 5.914 ± 0.15
101.3 kPa, x2 = 0.5104 | 27.48 ± 0.72 | 20.95 ± 0.55 | 16.28 ± 0.42 | 12.83 ± 0.34 | 10.25 ± 0.27 | 8.308 ± 0.22 | 6.794 ± 0.18
101.3 kPa, x2 = 0.641 | 22.98 ± 0.6 | 17.41 ± 0.45 | 13.47 ± 0.35 | 10.6 ± 0.28 | 8.484 ± 0.22 | 6.887 ± 0.18 | 5.67 ± 0.15
101.3 kPa, x2 = 0.7356 | 17.61 ± 0.46 | – | 10.58 ± 0.28 | 8.433 ± 0.22 | 6.828 ± 0.18 | 5.626 ± 0.15 | 4.688 ± 0.12
101.3 kPa, x2 = 0.8064 | 10.8 ± 0.28 | 8.438 ± 0.22 | 6.716 ± 0.17 | 5.451 ± 0.14 | 4.498 ± 0.12 | 3.765 ± 0.098 | 3.181 ± 0.083
101.3 kPa, x2 = 0.8623 | 6.917 ± 0.18 | 5.549 ± 0.14 | 4.52 ± 0.12 | 3.745 ± 0.098 | 3.143 ± 0.082 | 2.663 ± 0.069 | 2.282 ± 0.059
101.3 kPa, x2 = 0.9067 | 4.02 ± 0.11 | – | 2.789 ± 0.073 | 2.363 ± 0.062 | 2.02 ± 0.053 | 1.75 ± 0.046 | 1.536 ± 0.04
101.3 kPa, x2 = 0.9434 | 2.462 ± 0.064 | 2.089 ± 0.055 | 1.794 ± 0.047 | 1.557 ± 0.041 | 1.364 ± 0.036 | 1.206 ± 0.031 | 1.076 ± 0.028
101.3 kPa, x2 = 0.974 | 1.532 ± 0.04 | 1.334 ± 0.035 | 1.172 ± 0.031 | 1.041 ± 0.027 | 0.929 ± 0.024 | 0.838 ± 0.022 | 0.759 ± 0.02
101.33 kPa, x1 = 0.01 | – | 1.089 ± 0.027 | 0.97 ± 0.025 | – | 0.785 ± 0.02 | – | –
101.33 kPa, x1 = 0.0217 | – | 1.366 ± 0.033 | 1.198 ± 0.03 | – | 0.949 ± 0.024 | – | –
101.33 kPa, x1 = 0.0333 | – | 1.692 ± 0.04 | 1.469 ± 0.036 | – | 1.133 ± 0.028 | – | –
101.33 kPa, x1 = 0.0467 | – | 2.146 ± 0.05 | 1.836 ± 0.044 | – | 1.384 ± 0.034 | – | –
101.33 kPa, x1 = 0.0622 | – | 2.759 ± 0.064 | 2.315 ± 0.054 | – | – | – | –
101.33 kPa, x1 = 0.0772 | – | 3.465 ± 0.079 | 2.815 ± 0.065 | – | 2.049 ± 0.048 | – | –
101.33 kPa, x1 = 0.1167 | – | 5.735 ± 0.12 | 4.525 ± 0.1 | – | 3.075 ± 0.071 | – | –
101.33 kPa, x1 = 0.1656 | – | 9.455 ± 0.19 | 7.046 ± 0.15 | – | 4.573 ± 0.1 | – | –
101.33 kPa, x1 = 0.2308 | – | 14.59 ± 0.27 | 10.71 ± 0.21 | – | 6.551 ± 0.14 | – | –
101.33 kPa, x1 = 0.3169 | – | 19.66 ± 0.35 | 14.66 ± 0.27 | – | 8.805 ± 0.17 | – | –
101.33 kPa, x1 = 0.3893 | – | 21.8 ± 0.39 | 16.85 ± 0.31 | – | 10.24 ± 0.2 | – | –
101.33 kPa, x1 = 0.449 | – | 22.25 ± 0.39 | 17.79 ± 0.32 | – | 10.9 ± 0.21 | – | –
101.33 kPa, x1 = 0.5356 | – | 22.31 ± 0.39 | 17.99 ± 0.32 | – | 11.21 ± 0.21 | – | –
101.33 kPa, x1 = 0.6845 | – | 21.05 ± 0.37 | 16.24 ± 0.3 | – | 10.16 ± 0.2 | – | –
101.33 kPa, x1 = 0.8213 | – | 17.45 ± 0.32 | 13.21 ± 0.25 | – | 8.401 ± 0.17 | – | –
101.33 kPa, x1 = 0.9202 | – | 13.96 ± 0.26 | 11 ± 0.21 | – | 7.227 ± 0.15 | – | –
101.33 kPa, x1 = 0.956 | – | 12.96 ± 0.24 | 10.26 ± 0.2 | – | 6.823 ± 0.14 | – | –
